Reference: the NIST ThermoML archive (doi:10.1021/je0341413)

Columns and labels:
[1] = Liquid; for viscosity: 101.3 kPa; for mass density: 101.33 kPa
[2] = xn = mol fraction of the nth substance listed; settings: 101.3 kPa, Liquid

CCCCO [butan-1-ol]
[1]
Settings	mass density [kg/m3]	viscosity [mPa·s]
293.15 K	–	2.941
298.15 K	805.9	2.62
303.15 K	–	2.255
313.15 K	–	1.754

CCCCO [butan-1-ol] + CCOC(=O)OCC
[2], x2 = 0
Settings	viscosity [mPa·s]
293.15 K	2.941
298.15 K	2.62
303.15 K	2.255
313.15 K	1.754

CCC(C)O (stereo not given) [butan-2-ol]
[1]
Settings	mass density [kg/m3]	viscosity [mPa·s]
293.15 K	–	3.619
298.15 K	802.4	3.115
303.15 K	–	2.503
313.15 K	–	1.784

CCC(C)O (stereo not given) [butan-2-ol] + CCOC(=O)OCC
[2], x2 = 0
Settings	viscosity [mPa·s]
293.15 K	3.619
298.15 K	3.115
303.15 K	2.503
313.15 K	1.784

CCOC(=O)OCC [diethyl carbonate]
[1]
Settings	mass density [kg/m3]	viscosity [mPa·s]
293.15 K	–	0.795
298.15 K	969.1	0.749
303.15 K	–	0.699
313.15 K	–	0.623

CCOC(=O)OCC [diethyl carbonate] + CC(C)O
[2]
Settings	viscosity [mPa·s]
293.15 K, x1 = 0.0502	1.973
293.15 K, x1 = 0.1001	1.67
293.15 K, x1 = 0.203	1.27
293.15 K, x1 = 0.3012	1.073
293.15 K, x1 = 0.3954	0.962
293.15 K, x1 = 0.5021	0.886
293.15 K, x1 = 0.6035	0.841
293.15 K, x1 = 0.6976	0.811
293.15 K, x1 = 0.8048	0.794
293.15 K, x1 = 0.9129	0.796
293.15 K, x1 = 0.9529	0.799
293.15 K, x1 = 1	0.795
298.15 K, x1 = 0.049	1.766
298.15 K, x1 = 0.0987	1.501
298.15 K, x1 = 0.1978	1.135
298.15 K, x1 = 0.2945	0.94
298.15 K, x1 = 0.3925	0.836
298.15 K, x1 = 0.4925	0.788
298.15 K, x1 = 0.5939	0.763
298.15 K, x1 = 0.7004	0.74
298.15 K, x1 = 0.7979	0.719
298.15 K, x1 = 0.8967	0.717
298.15 K, x1 = 0.9504	0.726
298.15 K, x1 = 1	0.749
303.15 K, x1 = 0.0522	1.468
303.15 K, x1 = 0.099	1.277
303.15 K, x1 = 0.1944	1.009
303.15 K, x1 = 0.2913	0.864
303.15 K, x1 = 0.392	0.777
303.15 K, x1 = 0.4763	0.733
303.15 K, x1 = 0.5883	0.702
303.15 K, x1 = 0.6972	0.683
303.15 K, x1 = 0.7854	0.68
303.15 K, x1 = 0.889	0.684
303.15 K, x1 = 0.9488	0.69
303.15 K, x1 = 1	0.699
313.15 K, x1 = 0.0506	1.148
313.15 K, x1 = 0.0997	1.011
313.15 K, x1 = 0.2016	0.821
313.15 K, x1 = 0.303	0.71
313.15 K, x1 = 0.4008	0.661
313.15 K, x1 = 0.4969	0.634
313.15 K, x1 = 0.599	0.617
313.15 K, x1 = 0.7007	0.604
313.15 K, x1 = 0.8011	0.594
313.15 K, x1 = 0.903	0.596
313.15 K, x1 = 0.9511	0.605
313.15 K, x1 = 1	0.623

CCOC(=O)OCC [diethyl carbonate] + CCC(C)O
[2]
Settings	viscosity [mPa·s]
293.15 K, x1 = 0.0512	2.892
293.15 K, x1 = 0.1031	2.341
293.15 K, x1 = 0.2021	1.652
293.15 K, x1 = 0.2997	1.289
293.15 K, x1 = 0.4023	1.092
293.15 K, x1 = 0.5115	0.979
293.15 K, x1 = 0.607	0.91
293.15 K, x1 = 0.707	0.861
293.15 K, x1 = 0.8038	0.825
293.15 K, x1 = 0.9089	0.804
293.15 K, x1 = 0.9524	0.803
293.15 K, x1 = 1	0.795
298.15 K, x1 = 0.0509	2.485
298.15 K, x1 = 0.101	2.001
298.15 K, x1 = 0.202	1.379
298.15 K, x1 = 0.3002	1.071
298.15 K, x1 = 0.404	0.937
298.15 K, x1 = 0.5003	0.888
298.15 K, x1 = 0.6008	0.858
298.15 K, x1 = 0.6963	0.813
298.15 K, x1 = 0.7987	0.752
298.15 K, x1 = 0.8999	0.709
298.15 K, x1 = 0.9466	0.712
298.15 K, x1 = 1	0.749
303.15 K, x1 = 0.0517	2.023
303.15 K, x1 = 0.1132	1.623
303.15 K, x1 = 0.2267	1.211
303.15 K, x1 = 0.3316	1.021
303.15 K, x1 = 0.4467	0.89
303.15 K, x1 = 0.5422	0.809
303.15 K, x1 = 0.6426	0.739
303.15 K, x1 = 0.7416	0.698
303.15 K, x1 = 0.8281	0.684
303.15 K, x1 = 0.9196	0.691
303.15 K, x1 = 0.9494	0.697
303.15 K, x1 = 1	0.699
313.15 K, x1 = 0.0511	1.503
313.15 K, x1 = 0.1026	1.28
313.15 K, x1 = 0.1988	0.996
313.15 K, x1 = 0.2955	0.83
313.15 K, x1 = 0.4041	0.738
313.15 K, x1 = 0.5084	0.69
313.15 K, x1 = 0.5983	0.662
313.15 K, x1 = 0.6988	0.636
313.15 K, x1 = 0.8034	0.61
313.15 K, x1 = 0.9022	0.601
313.15 K, x1 = 0.9523	0.606
313.15 K, x1 = 1	0.623

CCOC(=O)OCC [diethyl carbonate] + CCCCCO
[2]
Settings	viscosity [mPa·s]
293.15 K, x1 = 0.0496	3.384
293.15 K, x1 = 0.1016	2.868
293.15 K, x1 = 0.2034	2.125
293.15 K, x1 = 0.3124	1.618
293.15 K, x1 = 0.3801	1.412
293.15 K, x1 = 0.5085	1.162
293.15 K, x1 = 0.6047	1.051
293.15 K, x1 = 0.7068	0.955
293.15 K, x1 = 0.8058	0.88
293.15 K, x1 = 0.9058	0.825
293.15 K, x1 = 0.9521	0.804
293.15 K, x1 = 1	0.795
298.15 K, x1 = 0.0459	2.91
298.15 K, x1 = 0.0984	2.492
298.15 K, x1 = 0.2067	1.857
298.15 K, x1 = 0.3012	1.497
298.15 K, x1 = 0.4002	1.242
298.15 K, x1 = 0.5091	1.067
298.15 K, x1 = 0.5884	0.972
298.15 K, x1 = 0.6988	0.871
298.15 K, x1 = 0.7986	0.802
298.15 K, x1 = 0.9133	0.751
298.15 K, x1 = 0.9663	0.745
298.15 K, x1 = 1	0.749
303.15 K, x1 = 0.0541	2.471
303.15 K, x1 = 0.0951	2.186
303.15 K, x1 = 0.1968	1.664
303.15 K, x1 = 0.292	1.356
303.15 K, x1 = 0.3986	1.131
303.15 K, x1 = 0.4966	0.992
303.15 K, x1 = 0.5963	0.88
303.15 K, x1 = 0.6847	0.803
303.15 K, x1 = 0.7988	0.733
303.15 K, x1 = 0.8885	0.706
303.15 K, x1 = 0.9493	0.7
303.15 K, x1 = 1	0.699
313.15 K, x1 = 0.0505	1.97
313.15 K, x1 = 0.1009	1.729
313.15 K, x1 = 0.2038	1.359
313.15 K, x1 = 0.3044	1.12
313.15 K, x1 = 0.4054	0.96
313.15 K, x1 = 0.5077	0.845
313.15 K, x1 = 0.5969	0.771
313.15 K, x1 = 0.71	0.697
313.15 K, x1 = 0.81	0.65
313.15 K, x1 = 0.9036	0.623
313.15 K, x1 = 0.9537	0.621
313.15 K, x1 = 1	0.623

CCOC(=O)OCC [diethyl carbonate] + CCCCO
[2]
Settings	viscosity [mPa·s]
293.15 K, x1 = 0.051	2.5
293.15 K, x1 = 0.1027	2.148
293.15 K, x1 = 0.2008	1.672
293.15 K, x1 = 0.2978	1.376
293.15 K, x1 = 0.4026	1.173
293.15 K, x1 = 0.5079	1.031
293.15 K, x1 = 0.6014	0.944
293.15 K, x1 = 0.7033	0.878
293.15 K, x1 = 0.7986	0.841
293.15 K, x1 = 0.9031	0.814
293.15 K, x1 = 0.951	0.81
293.15 K, x1 = 1	0.795
298.15 K, x1 = 0.0519	2.203
298.15 K, x1 = 0.0993	1.899
298.15 K, x1 = 0.1996	1.445
298.15 K, x1 = 0.2923	1.195
298.15 K, x1 = 0.3989	1.03
298.15 K, x1 = 0.5017	0.939
298.15 K, x1 = 0.6016	0.874
298.15 K, x1 = 0.7043	0.815
298.15 K, x1 = 0.8002	0.766
298.15 K, x1 = 0.8968	0.736
298.15 K, x1 = 0.9471	0.734
298.15 K, x1 = 1	0.749
303.15 K, x1 = 0.0508	1.905
303.15 K, x1 = 0.1004	1.642
303.15 K, x1 = 0.2016	1.3
303.15 K, x1 = 0.3	1.101
303.15 K, x1 = 0.3917	0.977
303.15 K, x1 = 0.5032	0.87
303.15 K, x1 = 0.597	0.794
303.15 K, x1 = 0.7099	0.729
303.15 K, x1 = 0.8216	0.699
303.15 K, x1 = 0.9035	0.697
303.15 K, x1 = 0.9488	0.697
303.15 K, x1 = 1	0.699
313.15 K, x1 = 0.0506	1.535
313.15 K, x1 = 0.1007	1.356
313.15 K, x1 = 0.2005	1.09
313.15 K, x1 = 0.2975	0.926
313.15 K, x1 = 0.4122	0.802
313.15 K, x1 = 0.5035	0.741
313.15 K, x1 = 0.6084	0.691
313.15 K, x1 = 0.7044	0.656
313.15 K, x1 = 0.8055	0.634
313.15 K, x1 = 0.9016	0.618
313.15 K, x1 = 0.9486	0.617
313.15 K, x1 = 1	0.623
